The values that follow come from patent publication EP4748837A1, “AROMATIC AMIDE DERIVATIVE, AND PREPARATION METHOD THEREFOR AND USE THEREOF” (Zhejiang Hisun Pharmaceutical Co., Ltd., priority 2023, dated 2025).

One assay addresses T1, recombinant human KIF18A (Homo sapiens, UniProt Q8NI77).
T1 construct: purchased GenScript
The assay can be described thus: Inhibition of KIF18A enzyme activity (ADP-Glo assay). Type of assay: biochemical. The settings on record: recombinant human KIF18A 100 nM, ATP 60 µM, tubulin, paclitaxel; read-out: IC50. (In general: In ADP-Glo the light output rises with the ADP produced.)

In assay [1] the test system is OVCAR-3 human ovarian adenocarcinoma tumor mass. The assay can be described thus: Pharmacodynamic testing in subcutaneous OVCAR-3 xenograft model. The assay is classed as in vivo, BALB/c nude mice. The settings on record: for inhibitory effect on tumor growth (in words): 8 mg/kg, compared with the solvent control group and AMG650; for TGI% / Relative tumor volume (x±S) / Tumor volume (x±S): 35 days after administration, 8 mg/kg po QD, BALB/c nude mice; for Relative tumor volume (x±S) / Tumor volume (x±S): mean value ± standard error; for Tumor volume (x±S): in mm³ (unit assumed). As for the experimental part: Anti-tumor effects and Safeties of the Compounds 47 and 53 of the present invention in a BALB/c nude mouse animal model subjected to subcutaneous xenotransplantation of OVCAR-3 human ovarian adenocarcinoma tumor mass were evaluated.
BALB/c; nude mice, female, 6-7 weeks old, purchased from Jiangsu Gempharmatech Biotechnology Co., Ltd.
Mice in a solvent control group were given DMA: CrEL: 5%GS=10: 10: 80 (v: v: v). AMG650: a proper amount of AMG-650 was weigned, proper amounts of DMA, CrEL and 5% GS were added in sequence, and the mixture was well mixed by ultrasonic vortex to prepare 0.8 mg/mL drug preparations respectively, wherein DMA: CrEL : 5% GS=10: 10: 80 (v: v: v).
Compound 47: a proper amount of Compound 47 was added with proper amounts of DMA, CrEL and 5% GS in sequence, and evenly mixed by ultrasonic vortex to prepare 0.8 mg/mL drug preparations respectively, wherein DMA, CrEL and 5% GS=10: 10: 80 (v: v: v).
Compound 53: a proper amount of Compound 53 was weighed, proper amounts of DMA, CrEL and 5% GS were added in sequence, and the mixture was well mixed by ultrasonic vortex to prepare 0.8 mg/mL drug preparations respectively, wherein DMA: CrEL : 5% GS=10: 10: 80 (v: v: v).
An appropriate OVCAR-3 tumor-bearing animal was selected, and a 1 mm×1 mm×1 mm OVCAR-3 tumor mass was acquired aseptically and placed into normal saline for later use, which was used for subcutaneous tumor inoculation in a right side of back of the BALB/c nude mice.
About 1 mm×1 mm×1 mm OVCAR-3 tumor mass was subcutaneously inoculated in the right side of back of the female BALB/c nude mice. When an average tumor volume reached about 100-250 mm^3, the mice were randomly grouped based on tumor size, with 6 mice in each group.
Animals in each group were given the test compound once per day according to an animal weight at a fixed time every day by oral administration (po), the animals started to be administered with the test compound for the first time on the day of grouping for 35 consecutive days, and the animal weight was recorded every day.
The 1st group (G1) was a solvent control group; and
The 2nd-4th groups […] were orally administered with AMG-650, Compound 47 and Compound 53 at an administration dosage of 8 mg/kg once per day (QD).

The test system of the next assay is HT-29 cells. Description: Inhibition of HT-29 cell proliferation (CellTiter-Glo cell viability). The settings on record: Homo sapiens; HT-29 cells (TP53 R273H mutation), 120 hours culture with compound; read-out: IC50. The assay is classed as cell-based. Summed up:
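HT-29 cells (TP53 R273H) in McCOY's 5A with 10% FBS, seeded 1000 cells/well overnight, then exposed to compound at 1000 nM–0.015 nM final for 120 hours at 37°C. Viability by CellTiter-Glo luminescence versus 0.3% DMSO control; IC50 by nonlinear regression of log concentration–inhibition.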

T1 sequence (Q8NI77 whole entry): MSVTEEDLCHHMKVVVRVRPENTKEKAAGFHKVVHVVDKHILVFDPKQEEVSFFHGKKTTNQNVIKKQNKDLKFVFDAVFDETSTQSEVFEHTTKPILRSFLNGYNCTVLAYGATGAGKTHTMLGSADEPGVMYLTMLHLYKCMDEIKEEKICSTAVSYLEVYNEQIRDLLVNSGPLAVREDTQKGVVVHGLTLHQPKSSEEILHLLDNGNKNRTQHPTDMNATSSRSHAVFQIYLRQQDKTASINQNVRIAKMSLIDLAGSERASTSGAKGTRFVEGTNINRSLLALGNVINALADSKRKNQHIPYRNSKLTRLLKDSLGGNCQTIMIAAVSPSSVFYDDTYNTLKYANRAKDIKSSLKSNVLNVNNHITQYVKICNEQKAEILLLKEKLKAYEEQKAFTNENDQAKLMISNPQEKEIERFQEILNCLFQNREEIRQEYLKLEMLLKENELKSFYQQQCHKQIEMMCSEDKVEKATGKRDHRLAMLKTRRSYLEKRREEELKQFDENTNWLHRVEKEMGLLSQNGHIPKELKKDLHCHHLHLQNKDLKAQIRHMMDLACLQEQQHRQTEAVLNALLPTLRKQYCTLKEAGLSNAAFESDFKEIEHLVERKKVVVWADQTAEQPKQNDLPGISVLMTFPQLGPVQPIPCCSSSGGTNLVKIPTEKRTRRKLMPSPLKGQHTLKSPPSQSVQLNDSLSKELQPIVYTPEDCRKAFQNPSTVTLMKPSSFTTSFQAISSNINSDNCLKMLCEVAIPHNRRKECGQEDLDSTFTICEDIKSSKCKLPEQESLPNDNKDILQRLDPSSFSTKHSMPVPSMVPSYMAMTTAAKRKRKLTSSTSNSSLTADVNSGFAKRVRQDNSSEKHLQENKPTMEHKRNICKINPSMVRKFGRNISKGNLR
T1 sequence (P68363 whole entry partner): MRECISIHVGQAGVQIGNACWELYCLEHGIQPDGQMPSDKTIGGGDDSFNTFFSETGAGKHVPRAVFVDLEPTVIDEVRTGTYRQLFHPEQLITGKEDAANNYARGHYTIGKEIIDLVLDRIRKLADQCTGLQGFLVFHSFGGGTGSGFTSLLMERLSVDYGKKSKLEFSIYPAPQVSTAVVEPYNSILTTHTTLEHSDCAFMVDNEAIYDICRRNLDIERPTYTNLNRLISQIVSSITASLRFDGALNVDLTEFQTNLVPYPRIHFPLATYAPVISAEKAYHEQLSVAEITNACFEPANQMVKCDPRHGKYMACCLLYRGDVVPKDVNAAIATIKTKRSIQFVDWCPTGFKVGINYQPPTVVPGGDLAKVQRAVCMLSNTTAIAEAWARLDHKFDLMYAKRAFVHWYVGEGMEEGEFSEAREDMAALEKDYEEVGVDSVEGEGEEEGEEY
T1 sequence (Q9BVA1 whole entry partner): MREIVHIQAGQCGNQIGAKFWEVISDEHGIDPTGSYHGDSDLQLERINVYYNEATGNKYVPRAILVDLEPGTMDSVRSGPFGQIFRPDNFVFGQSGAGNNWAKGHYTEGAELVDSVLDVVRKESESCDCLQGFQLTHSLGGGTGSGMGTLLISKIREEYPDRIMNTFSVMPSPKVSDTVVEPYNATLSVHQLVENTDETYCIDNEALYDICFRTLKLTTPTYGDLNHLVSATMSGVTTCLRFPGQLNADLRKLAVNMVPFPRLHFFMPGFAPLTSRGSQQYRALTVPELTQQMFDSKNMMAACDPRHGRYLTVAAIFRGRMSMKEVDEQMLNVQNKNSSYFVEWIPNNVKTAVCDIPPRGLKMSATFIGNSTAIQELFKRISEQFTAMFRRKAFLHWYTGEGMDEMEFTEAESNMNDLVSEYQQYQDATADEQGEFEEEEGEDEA

On to `CCS(=O)(=O)Nc1ccc(C(=O)Nc2ccc(-c3ncn(C)n3)c(OCC(F)(F)F)c2)c(N2CCC3(CC2)CC3)c1` [Example 47, 4-(ethylsulfonamido)-N-(4-(1-methyl-1H-1,2,4-triazol-3-yl)-3-(2,2,2-trifluoroethoxy)pheny 1)-2-(6-azaspiro[2.5]octan-6-yl)benzamide], for which, at recombinant human KIF18A, the IC50 came to 155 nM. In addition, in assay [1], the “inhibitory effect on tumor growth (in words)” value is “more significant inhibitory effect on tumor growth”, the TGI% is 95.5%, the “Relative tumor volume (x±S)” value amounted to 0.22±0.11 and the “Tumor volume (x±S)” value was 40±20. The IC50 with HT-29 cells is 0.54 nM.
In the case of `CCS(=O)(=O)Nc1ccc(C(=O)Nc2ccc(-c3ncccn3)c(OCC(F)(F)F)c2)c(N2CCC3(CC2)CC3)c1` [Example 53, 4-(ethylsulfonamido)-N-(4-(pyrimidin-2-yl)-3-(2,2,2-trifluoroethoxy)phenyl)-2-(6-azaspiro[2.5]octan-6-yl)benzamide], at recombinant human KIF18A, the IC50 was 142 nM. Besides, in assay [1], the “inhibitory effect on tumor growth (in words)” value is “more significant inhibitory effect on tumor growth”, the TGI% is recorded as 98.0%, the “Relative tumor volume (x±S)” value is given as 0.10±0.04 and the “Tumor volume (x±S)” value was 21±9. The IC50 in the assay on HT-29 cells amounted to 6.8 nM.

As a reminder, the IC50 is the concentration needed to halve the response being measured.
